Data taken from the NIST ThermoML archive (doi:10.1021/acs.jced.7b00092).

Conditions: Liquid, Frequency=8 MHz, Pulse-echo method

C[Si](C)(C)O[Si](C)(C)O[Si](C)(C)O[Si](C)(C)C [decamethyltetrasiloxane]
Conditions	speed of sound [m/s]
217.81 K, 2 kPa	1232
217.81 K, 1324 kPa	1238.8
217.85 K, 9419 kPa	1278.4
217.9 K, 19699 kPa	1325.2
217.99 K, 40255 kPa	1409.2
218.01 K, 60115 kPa	1481.3
218.09 K, 79712 kPa	1545.9
218.16 K, 98572 kPa	1603
218.24 K, 118233 kPa	1658.4
249.42 K, 119047 kPa	1575.5
249.53 K, 98950 kPa	1515.2
249.65 K, 80370 kPa	1454.9
249.74 K, 59554 kPa	1380.8
249.8 K, 19343 kPa	1208.7
249.8 K, 39384 kPa	1300.3
249.84 K, 1077 kPa	1110.1
249.84 K, 9240 kPa	1156.2
299.9 K, 16 kPa	925.67
299.92 K, 1080 kPa	933.63
299.94 K, 121 kPa	926.31
299.96 K, 958 kPa	932.76
299.98 K, 9659 kPa	994.25
300 K, 19671 kPa	1056.3
300 K, 60024 kPa	1252.4
300 K, 80266 kPa	1331.2
300 K, 99198 kPa	1397.7
300.01 K, 40202 kPa	1164.3
300.04 K, 119626 kPa	1463.1
349.87 K, 59744 kPa	1145.5
349.89 K, 9447 kPa	851.51
349.89 K, 99170 kPa	1302.5
349.89 K, 119296 kPa	1370.8
349.9 K, 19447 kPa	925.37
349.92 K, 80462 kPa	1232.5
349.93 K, 1369 kPa	780.56
349.93 K, 40092 kPa	1049.2
399.55 K, 120290 kPa	1300.1
399.6 K, 1077 kPa	636.31
399.6 K, 9691 kPa	731.33
399.67 K, 1234 kPa	638.18
399.67 K, 20055 kPa	820.52
399.69 K, 38533 kPa	945.04
399.69 K, 60934 kPa	1064.3
399.7 K, 81120 kPa	1154.3
399.7 K, 99014 kPa	1224.6
449.89 K, 9702 kPa	623.33
449.92 K, 19667 kPa	723.35
449.96 K, 40506 kPa	876.94
449.99 K, 59941 kPa	986.94
450.01 K, 80184 kPa	1082.5
450.03 K, 99670 kPa	1162.7
450.04 K, 119488 kPa	1235.4
450.05 K, 1060 kPa	502.02
499.61 K, 9979 kPa	534.61
499.67 K, 20291 kPa	650.54
499.69 K, 40057 kPa	807.98
499.72 K, 4164 kPa	442.17
499.72 K, 60022 kPa	927.39
499.75 K, 5168 kPa	460.32
499.75 K, 80169 kPa	1026.5
499.76 K, 1001 kPa	371.6
499.78 K, 3058 kPa	420.07
499.8 K, 99589 kPa	1109
499.82 K, 1926 kPa	395
499.89 K, 119374 kPa	1183.6

C[Si](C)(C)O[Si](C)(C)O[Si](C)(C)C [octamethyltrisiloxane]
Conditions	speed of sound [m/s]
299.61 K, 10196 kPa	986.47
299.62 K, 101 kPa	911.32
299.63 K, 502 kPa	914.41
299.64 K, 984 kPa	918.29
299.64 K, 1480 kPa	922.14
299.65 K, 2012 kPa	926.38
299.66 K, 3441 kPa	937.36
299.68 K, 20155 kPa	1050.3
299.69 K, 5923 kPa	955.8
299.71 K, 30179 kPa	1107.3
349.58 K, 3704 kPa	781
349.59 K, 2066 kPa	764.64
349.59 K, 10127 kPa	839.26
349.6 K, 1556 kPa	759.34
349.61 K, 6067 kPa	803.25
349.61 K, 20075 kPa	915.62
349.64 K, 29800 kPa	980.01
349.65 K, 1075 kPa	754.2
349.69 K, 558 kPa	748.58
349.91 K, 111 kPa	742.97
399.42 K, 29701 kPa	873.39
399.95 K, 2018 kPa	610.77
399.96 K, 508 kPa	588.68
399.96 K, 993 kPa	595.83
399.96 K, 1439 kPa	602.33
399.96 K, 3510 kPa	630.8
400.02 K, 9928 kPa	704.99
400.15 K, 19875 kPa	796.17
449.44 K, 23518 kPa	734.5
449.96 K, 1045 kPa	448.89
449.98 K, 1523 kPa	458.69
449.99 K, 492 kPa	436.7
450.01 K, 1994 kPa	468.09
450.05 K, 3497 kPa	495.73
450.09 K, 6009 kPa	536.6
450.14 K, 9983 kPa	591.45
450.22 K, 20246 kPa	701.94
498.94 K, 3487 kPa	373.05
498.96 K, 1989 kPa	328.83
499 K, 5834 kPa	424.21
499.02 K, 1521 kPa	313.47
499.02 K, 10178 kPa	498.23
499.04 K, 1000 kPa	292.6
499.05 K, 16859 kPa	585.07
549.67 K, 15312 kPa	492.6
549.74 K, 6653 kPa	340.31
549.79 K, 4484 kPa	279.71
549.8 K, 10050 kPa	411.61
549.84 K, 12528 kPa	452.26
